From PMC11013998, “Preparation of Peptoid Antifreeze Agents and Their Structure–Property Relationship” (Polymers, 2024)

Tested on: Mouse fibroblasts (L929)
Test: Cytotoxicity test, Cell Counting Kit-8 (CCK8)
Type: cell-based
Conditions: L929 cells, 10 mg/mL in culture medium, 24 h, CCK-8, OD at 450 nm; non-cytotoxic if higher than 75%; tested at least three times
Description: Cytotoxicity testing is a crucial strategy used to test the safety of biological materials. This experiment employed a low-speed centrifuge (SC-3610, Anhui Zhongke Zhongjia scientific Instrument Co., Ltd., Hefei, China), a cell incubator (CCL-170B-8, ESCO, Kuala Lumpur, Singapore) and a multifunctional microplate detector (Synergy H1, Bio-Tek, Winooski, VT, USA). In this test, the cytotoxicity of peptoid oligomers was detected using Cell Counting Kit-8 (CCK8, Finn Biological Co., Ltd., Wuhan, China). Mouse fibroblasts (L929) were cultured and subcultured to ensure that they met the experimental requirements. The old culture medium was removed from the cell dish, and 1 mL trypsin was added to digest the cells. A total of 2 mL of the new culture medium was added to the cell culture dish, and the cells were centrifuged to the bottom of the centrifuge tube. The culture medium was removed. An appropriate amount of new culture medium was added, and the centrifuge tube was shaken gently to disperse the cells evenly. […] Finally, the Optical Density (OD) at 450 nm was measured using a BioTek multifunctional microplate detector. The relative survival rate (σ) could be calculated using the following formula:(1) σ=OD1−OD0/OD2−OD0×100% where OD1 was the average OD of the experimental group, OD2 was the average OD of the negative control group, and OD0 was the average OD of the blank control group. […]

## C[S+](C)[O-] [DMSO, dimethyl sulfoxide]
  relative cell viability: 61.9%
